Laboratory results as given in PubChem BioAssay AID330 (DTP/NCI, 2004).
Several values for one entry are separate records, joined by “and”; a condition that tells them apart may be missing. Equal values may be shown once. Inconclusive results and toxic doses are left out. How the source made its calls: active means survival T/C of 150% or more; inactive means T/C below 125% in these data.

Test system: P388 leukemia ip, CD2F1 mice, survival T/C
Assay: NCI In Vivo Anticancer Drug Screen. Data for tumor model P388 Leukemia (intraperitoneal) in CD2F1 (CDF1) mice
Settings: endpoint: median survival time, higher = longer survival
In short: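 Mice carrying the transplanted tumor received test compound or vehicle. Survival was recorded in each group, and the value is the treated-group measurement divided by that of the vehicle-treated control group.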

[1] = dose: 50.0 mg/kg/injection, schedule: Q01DX009 (ip), vehicle: saline
[2] = dose: 100.0 mg/kg/injection, schedule: Q01DX009 (ip), vehicle: saline
[3] = dose: 200.0 mg/kg/injection, schedule: Q01DX009 (ip), vehicle: saline
[4] = dose: 60.0 mg/kg/injection, schedule: Q01DX005 (ip), vehicle: saline with Tween-80
[5] = dose: 50.0 mg/kg/injection, schedule: Q01DX005 (ip), vehicle: saline with Tween-80
[6] = dose: 100.0 mg/kg/injection, schedule: Q01DX005 (ip), vehicle: saline with Tween-80
[7] = dose: 50.0 mg/kg/injection, schedule: Q01DX009 (ip), vehicle: saline with Tween-80
[8] = dose: 100.0 mg/kg/injection, schedule: Q01DX009 (ip), vehicle: saline with Tween-80
[9] = dose: 200.0 mg/kg/injection, schedule: Q01DX009 (ip), vehicle: saline with Tween-80
[10] = dose: 50.0 mg/kg/injection, schedule: Q01DX009 (ip), vehicle: Klucel (hydroxypropylcellulose) (HPC)
[11] = dose: 100.0 mg/kg/injection, schedule: Q01DX009 (ip), vehicle: Klucel (hydroxypropylcellulose) (HPC)
[12] = dose: 200.0 mg/kg/injection, schedule: Q01DX009 (ip), vehicle: Klucel (hydroxypropylcellulose) (HPC)
[13] = dose: 12.5 mg/kg/injection, schedule: Q01DX009 (ip), vehicle: saline with Tween-80
[14] = dose: 50.0 mg/kg/injection, schedule: Q01DX005 (ip), vehicle: Klucel (hydroxypropylcellulose) (HPC)
[15] = dose: 100.0 mg/kg/injection, schedule: Q01DX005 (ip), vehicle: Klucel (hydroxypropylcellulose) (HPC)
[16] = dose: 200.0 mg/kg/injection, schedule: Q01DX005 (ip), vehicle: Klucel (hydroxypropylcellulose) (HPC)

Measured: T/C

O=C(O)c1ccc(Cc2ccc(C(=O)O)cc2)cc1 (tested in a mixture with another compound)
inactive: [1] 95 % of control | [2] 99 % of control | [3] 104 % of control

CC(=O)Oc1ccc(C2COc3cc(OC(C)=O)c(OC(C)=O)cc3C2)cc1 (centres undefined)
inactive: [4] 104 % of control | dose: 120.0 mg/kg/injection, schedule: Q01DX005 (ip), vehicle: saline with Tween-80 104 % of control | dose: 240.0 mg/kg/injection, schedule: Q01DX005 (ip), vehicle: saline with Tween-80 104 % of control

O=c1[nH]c2cc3c(cc2n2cccc12)oc1ccccc13
inactive: dose: 25.0 mg/kg/injection, schedule: Q01DX005 (ip), vehicle: saline with Tween-80 98 % of control | [5] 100 % of control | [6] 100 % of control | dose: 200.0 mg/kg/injection, schedule: Q01DX005 (ip), vehicle: saline with Tween-80 100 % of control

O=[N+]([O-])c1cc2c(cc1Cl)C1C(C3C2C2(Cl)C(Cl)=C(Cl)C3(Cl)C2(Cl)Cl)C2(Cl)C(Cl)=C(Cl)C1(Cl)C2(Cl)Cl (centres undefined)
inactive: [1] 101 % of control | [2] 109 % of control | [3] 106 % of control

[NH-]C(Cc1cnc[n-]1)C(=O)O.[NH-]C(Cc1cnc[n-]1)C(=O)O.[O]=[Mo]1[O][Mo](=[O])[O]1 (centres undefined)
inactive: dose: 50.0 mg/kg/injection, schedule: Q01DX009 (ip), vehicle: suspension in saline 99 % of control | dose: 100.0 mg/kg/injection, schedule: Q01DX009 (ip), vehicle: suspension in saline 99 % of control | dose: 200.0 mg/kg/injection, schedule: Q01DX009 (ip), vehicle: suspension in saline 99 % of control

OC1(c2ccccc2)c2cccc(Cl)c2C(O)(c2ccccc2)c2c(Cl)cccc21 (centres undefined)
inactive: [7] 99 % of control | [8] 99 % of control | [9] 97 % of control

COC1CC(=O)C2(C)C3CCC4(C)C(C(C)C5CC(C)=C(CO)C(=O)O5)CCC4C3CC3OC32C1O (centres undefined)
inactive: dose: 10.12 mg/kg/injection, schedule: Q01DX009 (ip), vehicle: saline + alcohol 105 % of control | dose: 20.25 mg/kg/injection, schedule: Q01DX009 (ip), vehicle: saline + alcohol 96 % of control | dose: 40.5 mg/kg/injection, schedule: Q01DX009 (ip), vehicle: saline + alcohol 94 % of control

CC(=O)Nc1ccc(C(C)=O)cc1
inactive: [7] 93 % of control | [8] 89 % of control | [9] 94 % of control

CN(C)C1C(=O)C(C(N)=O)=C(O)C2(O)C(=O)C3=C(O)c4c(O)cccc4C(C)(O)C3C(O)C12.[Cl][Sb]([Cl])[Cl] (centres undefined)
inactive: [5] 113 % of control | [6] 99 % of control

CCCCCCCCCCC(=O)Nc1ncc([N+](=O)[O-])s1
inactive: [10] 96 % of control | [11] 100 % of control | [12] 102 % of control

Clc1ccc(-c2noc(/C=C\c3ccccc3)n2)cc1
inactive: dose: 25.0 mg/kg/injection, schedule: Q01DX009 (ip), vehicle: Klucel (hydroxypropylcellulose) (HPC) 99 % of control and 86 % of control | [10] 98 % of control and 86 % of control | [11] 86 % of control and 97 % of control | [12] 95 % of control

CSc1ccc2ccccc2c1/C=[N+](/[O-])c1ccccc1
inactive: dose: 60.0 mg/kg/injection, schedule: Q01DX005 (ip), vehicle: Klucel (hydroxypropylcellulose) (HPC) 95 % of control | dose: 120.0 mg/kg/injection, schedule: Q01DX005 (ip), vehicle: Klucel (hydroxypropylcellulose) (HPC) 97 % of control | dose: 240.0 mg/kg/injection, schedule: Q01DX005 (ip), vehicle: Klucel (hydroxypropylcellulose) (HPC) 96 % of control

CN(C)c1ccc(Nc2c3ccccc3nc3ccccc23)cc1
active: dose: 25.0 mg/kg/injection, schedule: Q04DX002 (ip), vehicle: distilled water + Tween-80 150 % of control and 156 % of control | dose: 50.0 mg/kg/injection, schedule: Q04DX002 (ip), vehicle: distilled water + Tween-80 185 % of control and 196 % of control | dose: 100.0 mg/kg/injection, schedule: Q04DX003 (ip), vehicle: saline with Tween-80 157 % of control | dose: 120.0 mg/kg/injection, schedule: Q04DX003 (ip), vehicle: saline 179 % of control
inactive: dose: 12.5 mg/kg/injection, schedule: Q04DX002 (ip), vehicle: distilled water + Tween-80 113 % of control | dose: 13.0 mg/kg/injection, schedule: Q04DX003 (ip), vehicle: saline with Tween-80 100 % of control and 103 % of control | dose: 21.6 mg/kg/injection, schedule: Q04DX003 (ip), vehicle: saline with Tween-80 107 % of control and 111 % of control | dose: 25.9 mg/kg/injection, schedule: Q04DX003 (ip), vehicle: saline 109 % of control | dose: 36.0 mg/kg/injection, schedule: Q04DX003 (ip), vehicle: saline with Tween-80 110 % of control and 111 % of control

COC(=O)/C(C#N)=C(/SC)N(C)C
inactive: [13] 104 % of control | dose: 25.0 mg/kg/injection, schedule: Q01DX009 (ip), vehicle: saline with Tween-80 104 % of control | [7] 102 % of control and 109 % of control | [8] 103 % of control

Clc1ccc2[nH]c3ccc(Cl)cc3c2c1
inactive: [14] 104 % of control | [15] 113 % of control | [16] 113 % of control

CC(=O)CC(=O)c1ccccc1.CC(=O)CC(=O)c1ccccc1.[Ni]
inactive: dose: 3.0 mg/kg/injection, schedule: Q01DX009 (ip), vehicle: saline with Tween-80 106 % of control | dose: 6.0 mg/kg/injection, schedule: Q01DX009 (ip), vehicle: saline with Tween-80 98 % of control | dose: 12.0 mg/kg/injection, schedule: Q01DX009 (ip), vehicle: saline with Tween-80 99 % of control | [13] 91 % of control | dose: 24.0 mg/kg/injection, schedule: Q01DX009 (ip), vehicle: saline with Tween-80 99 % of control

O=C1c2ccccc2C(=O)N1OCc1cccc(C(F)(F)F)c1
inactive: [14] 98 % of control | [15] 90 % of control | [16] 86 % of control

C=CC1OCCCO1
inactive: dose: 60.0 mg/kg/injection, schedule: Q01DX005 (ip), vehicle: saline 100 % of control | dose: 120.0 mg/kg/injection, schedule: Q01DX005 (ip), vehicle: saline 100 % of control

CCN(CC)CC(=O)Nc1ccc2c(c1)C(=O)c1cc(NC(=O)CN(CC)CC)ccc1-2
inactive: [7] 86 % of control | [8] 94 % of control | [9] 96 % of control

CN(CC(N)=O)C(=O)N(CCCl)N=O
active: dose: 15.0 mg/kg/injection, schedule: Q01DX005 (ip), vehicle: saline with Tween-80 160 % of control | dose: 30.0 mg/kg/injection, schedule: Q01DX005 (ip), vehicle: saline with Tween-80 201 % of control | [4] 263 % of control

C=Cc1ccccc1 (tested in a mixture with another compound)
inactive: dose: 12.5 mg/kg/injection, schedule: Q01DX005 (ip), vehicle: saline 98 % of control | dose: 25.0 mg/kg/injection, schedule: Q01DX005 (ip), vehicle: saline 99 % of control

CN(C)C1C(O)C2Oc3c(cc(O)c4c3C(=O)c3cc5c(c(O)c3C4=O)C(N)CC(C)(O)C5)C(C)(O2)C1O (centres undefined)
inactive: dose: 5.0 mg/kg/injection, schedule: Q01DX009 (ip), vehicle: other 118 % of control

COc1cc(OC2OC(CO)C(O)C(O)C2O)c2c(O)c3c(=O)cc(C)oc3cc2c1 (centres undefined)
inactive: dose: 3.75 mg/kg/injection, schedule: Q01DX009 (ip), vehicle: Klucel (hydroxypropylcellulose) (HPC) 100 % of control | dose: 7.5 mg/kg/injection, schedule: Q01DX009 (ip), vehicle: Klucel (hydroxypropylcellulose) (HPC) 100 % of control | dose: 15.0 mg/kg/injection, schedule: Q01DX009 (ip), vehicle: Klucel (hydroxypropylcellulose) (HPC) 94 % of control | dose: 30.0 mg/kg/injection, schedule: Q01DX009 (ip), vehicle: Klucel (hydroxypropylcellulose) (HPC) 101 % of control

COC(OC)/C(C)=N/NC1=Nc2ccc(Cl)cc2C(c2ccccc2Cl)=NC1
inactive: [7] 98 % of control | [8] 95 % of control | [9] 101 % of control

Fc1ccccc1C=NC12CC3CC(CC(C3)C1)C2
inactive: [7] 100 % of control | [8] 102 % of control | [9] 108 % of control

N#C/C(=N\Nc1cccc(C(F)(F)F)c1)C(N)=O
inactive: [14] 103 % of control | [15] 115 % of control
